Source: paper PMC10675785, “(L)-Monomethyl Tyrosine (Mmt): New Synthetic Strategy via Bulky ‘Forced-Traceless’ Regioselective Pd-Catalyzed C(sp^2)–H Activation” (Pharmaceuticals, 2023)

Biological target: human NOP receptor (Homo sapiens, UniProt P41146)
Experiment: Calcium mobilization assay in CHO cells stably coexpressing the NOP receptor and the Gαqi5 chimeric G protein
Settings: CHOhNOP + Gαqi5 cells; Fluo-4 AM, FlexStation II, 37 °C; four-parameter logistic fit; mean of 5 or at least 6 experiments in duplicate
Procedure: Drugs and reagents: The reagents used were purchased from Sigma-Aldrich (St. Louis, MO, USA) and Thermo Fisher Scientific (Waltham, MA, USA). […] Concentrated solutions of ligands were made in distilled water (1 mM) and kept at −20 °C until use. Successive dilutions of ligands were made in Hank’s Balanced Salt Solution (HBSS) and HEPES buffer (containing 0.005% Bovine Serum Albumine (BSA)).
Cell Culture: Chinese Hamster Ovary (CHO) cells stably coexpressing the NOP opioid receptors and the Gαqi5 protein were used. […]
Calcium Mobilization Assay: Calcium mobilization studies were performed using the automated fluorometer microplate reader FlexStation II (Molecular Devices, Sunnyvale, CA, USA), which was employed to detect changes in fluorescence intensity. […] After placing both plates (cell culture and compound plate) into the fluorometric imaging plate reader FlexStation II, fluorescence changes were measured. […] Maximum change in fluorescence, expressed as percent over the baseline fluorescence, was used to determine agonist response.
Data analysis and terminology: All data were analyzed using Graph Pad Prism 6.0 (La Jolla, CA, USA). […] Data were expressed as mean ± sem of 5 experiments performed in duplicate. Agonist effects were expressed as the maximum change in percent over the baseline fluorescence. Baseline fluorescence was measured in wells treated with vehicles. […]

Chain of human NOP receptor (P41146 whole entry): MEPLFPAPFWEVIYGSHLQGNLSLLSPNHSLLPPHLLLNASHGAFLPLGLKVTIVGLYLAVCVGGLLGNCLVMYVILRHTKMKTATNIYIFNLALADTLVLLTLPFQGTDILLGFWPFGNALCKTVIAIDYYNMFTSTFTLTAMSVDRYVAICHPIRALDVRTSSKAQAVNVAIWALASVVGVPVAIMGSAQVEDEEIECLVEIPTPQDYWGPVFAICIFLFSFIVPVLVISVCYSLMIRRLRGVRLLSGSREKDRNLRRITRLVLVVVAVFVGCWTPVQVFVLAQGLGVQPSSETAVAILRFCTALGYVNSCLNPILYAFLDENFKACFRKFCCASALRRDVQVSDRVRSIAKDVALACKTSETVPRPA

Substance: [Dmt^1]N/OFQ(1-13)-NH2
- pEC50 (CL95%): 8.35 (7.94–8.77)
